According to the supplement of paper PMC10307832:

Experiments:
Test in all cases: relative viability (nuclei count vs DMSO), 5 days (fraction); higher = more cells survive
NCI-H596 = tested on: NCI-H596
How it was run: (§1)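 After 5 days of treatment, lung cancer cells in 1536-well plates were fixed and stained in a single step (final 0.05% Triton X-100, 1% formaldehyde, 1 ug/ml Hoechst) and their nuclei counted on 4× images. Treatment had been applied by pin tool the day after seeding as one drug alone or as a fixed anchor-drug dose with five library-drug doses (not always all listed) in √10 steps. Relative viability is the nuclei count of treated wells divided by that of vehicle wells, and values are medians of duplicate plates.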

NCI-H2087 = tested on: NCI-H2087
How it was run: as §1

NCI-H650 = tested on: NCI-H650
How it was run: as §1

LCLC-97TM1 = tested on: LCLC-97TM1
How it was run: as §1

NCI-H1651 = tested on: NCI-H1651
How it was run: as §1

PC-3 [JPC-3] = tested on: PC-3 [JPC-3]
How it was run: as §1

LC-2-ad = tested on: LC-2-ad
How it was run: as §1

ChaGo-K-1 = tested on: ChaGo-K-1
How it was run: as §1

LU99A = tested on: LU99A
How it was run: as §1

LK-2 = tested on: LK-2
How it was run: as §1

NCI-H2342 = tested on: NCI-H2342
How it was run: as §1

NCI-H1944 = tested on: NCI-H1944
How it was run: as §1

SK-MES-1 = tested on: SK-MES-1
How it was run: as §1

HCC-78 = tested on: HCC-78
How it was run: as §1

BEN = tested on: BEN
How it was run: as §1

NCI-H1355 = tested on: NCI-H1355
How it was run: as §1

NCI-H661 = tested on: NCI-H661
How it was run: as §1

NCI-H1666 = tested on: NCI-H1666
How it was run: as §1

NCI-H838 = tested on: NCI-H838
How it was run: as §1

LXF-289 = tested on: LXF-289
How it was run: as §1

NCI-H1975 = tested on: NCI-H1975
How it was run: as §1

NCI-H358 = tested on: NCI-H358
How it was run: as §1

COc1nc(C)cnc1NS(=O)(=O)c1cccnc1-c1ccc(-c2nnco2)cc1 [Zibotentan] + Cc1cc(Nc2cc(N3CCN(C)CC3)nc(Sc3ccc(NC(=O)C4CC4)cc3)n2)n[nH]1 [Tozasertib] (partner 0.1 µM)
relative viability (NCI-H596; first compound 0.08 µM): 0.883 | relative viability (NCI-H596; first compound 0.253 µM): 0.846 | relative viability (NCI-H596; first compound 0.8 µM): 0.684 | relative viability (NCI-H596; first compound 2.53 µM): 1.07 | relative viability (NCI-H2087; first compound 0.08 µM): 0.249 | relative viability (NCI-H2087; first compound 0.253 µM): 0.268 | relative viability (NCI-H2087; first compound 0.8 µM): 0.249 | relative viability (NCI-H2087; first compound 2.53 µM): 0.238 | relative viability (NCI-H650; first compound 0.08 µM): 0.871 | relative viability (NCI-H650; first compound 0.253 µM): 0.699 | relative viability (NCI-H650; first compound 0.8 µM): 0.692 | relative viability (NCI-H650; first compound 2.53 µM): 0.738 | relative viability (LCLC-97TM1; first compound 0.08 µM): 0.228 | relative viability (LCLC-97TM1; first compound 0.253 µM): 0.237 | relative viability (LCLC-97TM1; first compound 0.8 µM): 0.21 | relative viability (LCLC-97TM1; first compound 2.53 µM): 0.233 | relative viability (NCI-H1651; first compound 0.08 µM): 0.678 | relative viability (NCI-H1651; first compound 0.253 µM): 0.552 | relative viability (NCI-H1651; first compound 0.8 µM): 0.767 | relative viability (NCI-H1651; first compound 2.53 µM): 0.717 | relative viability (PC-3 [JPC-3]; first compound 0.08 µM): 0.869 | relative viability (PC-3 [JPC-3]; first compound 0.253 µM): 0.903 | relative viability (PC-3 [JPC-3]; first compound 0.8 µM): 0.853 | relative viability (PC-3 [JPC-3]; first compound 2.53 µM): 0.878 | relative viability (LC-2-ad; first compound 0.08 µM): 0.436 | relative viability (LC-2-ad; first compound 0.8 µM): 0.574 | relative viability (LC-2-ad; first compound 2.53 µM): 0.452 | relative viability (ChaGo-K-1; first compound 0.08 µM): 0.208 | relative viability (ChaGo-K-1; first compound 0.253 µM): 0.218 | relative viability (ChaGo-K-1; first compound 0.8 µM): 0.21 | relative viability (ChaGo-K-1; first compound 2.53 µM): 0.24 | relative viability (LU99A; first compound 0.08 µM): 0.319 | relative viability (LU99A; first compound 0.253 µM): 0.25 | relative viability (LU99A; first compound 0.8 µM): 0.302 | relative viability (LU99A; first compound 2.53 µM): 0.301 | relative viability (LK-2; first compound 0.08 µM): 0.148 | relative viability (LK-2; first compound 0.253 µM): 0.191 | relative viability (LK-2; first compound 0.8 µM): 0.166 | relative viability (LK-2; first compound 2.53 µM): 0.198 | relative viability (NCI-H2342; first compound 0.08 µM): 0.496 | relative viability (NCI-H2342; first compound 0.253 µM): 0.446 | relative viability (NCI-H2342; first compound 0.8 µM): 0.493 | relative viability (NCI-H2342; first compound 2.53 µM): 0.667 | relative viability (NCI-H1944; first compound 0.08 µM): 0.252 | relative viability (NCI-H1944; first compound 0.253 µM): 0.236 | relative viability (NCI-H1944; first compound 0.8 µM): 0.242 | relative viability (NCI-H1944; first compound 2.53 µM): 0.271 | relative viability (SK-MES-1; first compound 0.08 µM): 0.999 | relative viability (SK-MES-1; first compound 0.253 µM): 0.809 | relative viability (SK-MES-1; first compound 0.8 µM): 0.874 | relative viability (SK-MES-1; first compound 2.53 µM): 0.877 | relative viability (HCC-78; first compound 0.08 µM): 0.526 | relative viability (HCC-78; first compound 0.253 µM): 0.393 | relative viability (HCC-78; first compound 0.8 µM): 0.306 | relative viability (HCC-78; first compound 2.53 µM): 0.435 | relative viability (BEN; first compound 0.08 µM): 0.542 | relative viability (BEN; first compound 0.253 µM): 0.426 | relative viability (BEN; first compound 0.8 µM): 0.473 | relative viability (BEN; first compound 2.53 µM): 0.642 | relative viability (NCI-H1355; first compound 0.08 µM): 0.626 | relative viability (NCI-H1355; first compound 0.253 µM): 0.537 | relative viability (NCI-H1355; first compound 0.8 µM): 0.55 | relative viability (NCI-H1355; first compound 2.53 µM): 0.565 | relative viability (NCI-H661; first compound 0.08 µM): 0.369 | relative viability (NCI-H661; first compound 0.253 µM): 0.334 | relative viability (NCI-H661; first compound 0.8 µM): 0.347 | relative viability (NCI-H661; first compound 2.53 µM): 0.364 | relative viability (NCI-H1666; first compound 0.08 µM): 0.582 | relative viability (NCI-H1666; first compound 0.253 µM): 0.593 | relative viability (NCI-H1666; first compound 0.8 µM): 0.784 | relative viability (NCI-H1666; first compound 2.53 µM): 0.646 | relative viability (NCI-H838; first compound 0.08 µM): 0.284 | relative viability (NCI-H838; first compound 0.253 µM): 0.229 | relative viability (NCI-H838; first compound 0.8 µM): 0.274 | relative viability (NCI-H838; first compound 2.53 µM): 0.329 | relative viability (LXF-289; first compound 0.08 µM): 0.212 | relative viability (LXF-289; first compound 0.253 µM): 0.161 | relative viability (LXF-289; first compound 0.8 µM): 0.227 | relative viability (LXF-289; first compound 2.53 µM): 0.225 | relative viability (NCI-H1975; first compound 0.08 µM): 0.732 | relative viability (NCI-H1975; first compound 0.253 µM): 0.695 | relative viability (NCI-H1975; first compound 0.8 µM): 0.727 | relative viability (NCI-H1975; first compound 2.53 µM): 0.831 | relative viability (NCI-H358; first compound 0.08 µM): 0.0974 | relative viability (NCI-H358; first compound 0.253 µM): 0.099 | relative viability (NCI-H358; first compound 0.8 µM): 0.0954 | relative viability (NCI-H358; first compound 2.53 µM): 0.0945
